Measurements as given in ChEMBL document CHEMBL1201862, “PubChem BioAssay data set” (2004).
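Briefly, cells in 96-well plates were exposed to five compound concentrations for 48 h, and endpoints were estimated by linear interpolation. GI50 is the concentration that inhibits growth by half.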 The source made the active and inactive calls. Cut-off read from the data, not from the text of the source: active = GI50 up to about 1.1 µM and inactive = higher.

Key:
Test in all cases: NCI-60 cell line screen, 48 h
SNB-75 = tested on: SNB-75
TK-10 = tested on: TK-10
HT-29 = tested on: HT-29
A549 = tested on: A549
SF-539 = tested on: SF-539
SF-295 = tested on: SF-295
MOLT-4 = tested on: MOLT-4
OVCAR-5 = tested on: OVCAR-5
NCI-H23 = tested on: NCI-H23
NCI-H226 = tested on: NCI-H226
A498 = tested on: A498
IGROV-1 = tested on: IGROV-1
UACC-257 = tested on: UACC-257
OVCAR-8 = tested on: OVCAR-8
HOP-62 = tested on: HOP-62
NCI-H460 = tested on: NCI-H460

Compound | GI50 (SNB-75) | GI50 (TK-10) | GI50 (HT-29) | GI50 (A549) | GI50 (SF-539) | GI50 (SF-295) | GI50 (MOLT-4) | GI50 (OVCAR-5) | GI50 (NCI-H23) | GI50 (NCI-H226) | GI50 (A498) | GI50 (IGROV-1) | GI50 (UACC-257) | GI50 (OVCAR-8) | GI50 (HOP-62) | GI50 (NCI-H460)
FC(F)(F)c1ccccc1C1SCc2nc3ccccc3n21 (stereo not drawn) | > 100 µM (inactive) | > 100 µM (inactive) | 33.8 µM (inactive) | 41.6 µM (inactive) | 85.7 µM (inactive) | 57.1 µM (inactive) | 23.9 µM (inactive) | 28.8 µM (inactive) | 34 µM (inactive) | 39.4 µM (inactive) | 12.3 µM (inactive) | 60.1 µM (inactive) | 26.1 µM (inactive) | 61.4 µM (inactive) |  | 
COc1cc2ccc(CC(=O)O)cc2cc1OC | > 100 µM (inactive) | > 100 µM (inactive) | > 100 µM (inactive) | > 100 µM (inactive) |  |  | > 100 µM (inactive) |  | > 100 µM (inactive) | > 100 µM (inactive) | > 100 µM (inactive) | > 100 µM (inactive) | > 100 µM (inactive) | > 100 µM (inactive) | > 100 µM (inactive) | 
COC(=O)[C@@]12CC(C(C)C)[C@H]3CC(C(=O)C=C1OC)[C@H]32 (stereo partly drawn) | > 100 µM (inactive) | > 100 µM (inactive) | > 100 µM (inactive) | > 100 µM (inactive) | > 100 µM (inactive) | > 100 µM (inactive) | > 100 µM (inactive) | > 100 µM (inactive) | > 100 µM (inactive) |  | > 100 µM (inactive) | > 100 µM (inactive) | > 100 µM (inactive) | > 100 µM (inactive) | > 100 µM (inactive) | > 100 µM (inactive)
Cc1ccc(C(=O)c2nnc(C(=O)c3ccc(C)cc3)nn2)cc1 | > 100 µM (inactive) | 78.3 µM (inactive) | 61.9 µM (inactive) | 73.5 µM (inactive) | 38.9 µM (inactive) | 52.8 µM (inactive) | 34.1 µM (inactive) | 81.1 µM (inactive) | > 100 µM (inactive) | 56 µM (inactive) |  | 95.9 µM (inactive) | 58.3 µM (inactive) | 34.9 µM (inactive) | 39.4 µM (inactive) | 18.4 µM (inactive)
CCOC(=O)N1c2c(ccn2C)-c2ccn(C)c2N1C(=O)OCC | 15.5 µM (inactive) |  | 15.7 µM (inactive) | 20.9 µM (inactive) | 20 µM (inactive) | 15.3 µM (inactive) | 6.18 µM (inactive) | 17.4 µM (inactive) |  | 19.7 µM (inactive) | 44.1 µM (inactive) | 24.9 µM (inactive) | > 10 µM (inactive) | 14.1 µM (inactive) | > 100 µM (inactive) | 19.4 µM (inactive)
CCN1C(=O)C/C(=C\C(C)=O)Nc2ccccc21 | 21.5 µM (inactive) | > 100 µM (inactive) | > 100 µM (inactive) | > 100 µM (inactive) | > 100 µM (inactive) | > 100 µM (inactive) | > 100 µM (inactive) | > 100 µM (inactive) | > 100 µM (inactive) | > 100 µM (inactive) |  | > 100 µM (inactive) |  | > 100 µM (inactive) | > 100 µM (inactive) | > 100 µM (inactive)
O=c1c2ccccc2oc2ccccc12.Oc1cccc2cccnc12 | 2.29 µM (inactive) |  |  | 2.63 µM (inactive) | 2.36 µM (inactive) | 2.23 µM (inactive) | 0.607 µM (active) |  |  |  | 16.8 µM (inactive) | 3.73 µM (inactive) | 2.73 µM (inactive) | 2.36 µM (inactive) | 7.43 µM (inactive) | 0.966 µM (active)
O=C(O)CN(c1ccccc1)S(=O)(=O)c1ccc(Cl)cc1 | 59 µM (inactive) | > 100 µM (inactive) | > 100 µM (inactive) | > 100 µM (inactive) | > 100 µM (inactive) |  | > 100 µM (inactive) | > 100 µM (inactive) | > 100 µM (inactive) |  | > 100 µM (inactive) | > 100 µM (inactive) | > 100 µM (inactive) | > 100 µM (inactive) |  | > 100 µM (inactive)
